# Measured values from paper PMC4541410 (Scientific Reports, 2015).
# Tests used:
# proteinase K = test: in vitro; conditions: proteinase K in PBS, pH 7.2
# Description: Chromatographic analyses were performed using an ODS-C8 column (5 μm, 100 mm × 2.0 mm ID) kept at ambient temperature. The mobile phase was composed of acetonitrile-water-formic acid in the ratio of 50:50:0.1 (v/v/v) at a flow rate of 0.3 mL/min. The sample injection volume was 10 μL. Acetonitrile was HPLC grade and other chemical reagents and solvents were analytical grade. A Thermo TSQ Quantum Discovery MAX triple-quadruple tandem mass spectrometer equipped with ESI source (San Jose, CA) and Surveyor LC pump were used for LC-MS analysis. Data acquisition and data processing were performed by using Xcalibur software and LCQuan 2.0 data analysis program (Thermo Finnigan), respectively. Optimized MS parameters were as below: 4800 V spray voltage, 40.0 psi sheath gas pressure, 1.0 psi auxiliary valve flow and 300 °C of capillary temperature. When running collision-induced dissociation (CID), the pressure was set to 1.5 mTorr.
# The peptides (10 μg/mL) were prepared in PBS pH 7.2 containing 20 ng/ml proteinase K. The resulting mixture were incubated at 37 °C in a water bath and taken out at different time intervals (0, 5, 15, 30, 60, 120 minutes), followed by quenching the samples with ethyl alcohol and quantitating the peptides by LC-MS analysis as described above.
# [1] = intravenous 1 mg/kg, male SD rats, n = 2; plasma by sandwich ELISA; PK Solver
# in vivo = conditions: male, Sprague-Dawley (SD), rat, plasma, iv, 1 mg/kg
# [2] = cited from earlier work
# [3] = subcutaneously twice daily at 90 mg per dose; cited from earlier work
substance,measurement,setting,value
enfuvirtide,"remaining at 2 h, 10 μg/mL",proteinase K,29%
same,Cmax,[1],314.80 µg/mL
same,MRT,in vivo,2.27 h
same,half-life,in vivo,1.57 h
same,half-life in plasma,[2],about 2 h
same,injection-site reactions,[3],often causing serious injection-site reactions
